Test results as given in the NIST ThermoML archive (doi:10.1016/j.jct.2016.12.019).

Assay: xn = mol fraction of the nth substance listed
Settings: 100 kPa, Liquid; for viscosity: Capillary tube (Ostwald / Ubbelohde) method; for speed of sound: Frequency=2 MHz, Linear variable-path acoustic interferometer; for mass density: Vibrating tube method

CCN(CC)c1ccccc1 [N,N-diethylaniline] + CCCCCCCCCCO
Settings | mass density [kg/m3] | speed of sound [m/s] | viscosity [mPa·s]
303.15 K, x1 = 0.1141 | 831.36 | 1364.5 | 7.932
303.15 K, x1 = 0.2218 | 839.38 | 1366.8 | 6.521
303.15 K, x1 = 0.3717 | 852.13 | 1372.3 | 4.96
303.15 K, x1 = 0.4886 | 863.05 | 1378.1 | 4.007
303.15 K, x1 = 0.5815 | 872.51 | 1383.9 | 3.386
303.15 K, x1 = 0.6645 | 881.58 | 1390.1 | 2.918
303.15 K, x1 = 0.7545 | 892.16 | 1398.3 | 2.494
303.15 K, x1 = 0.8324 | 902.01 | 1406.8 | 2.185
303.15 K, x1 = 0.9121 | 912.85 | 1417.5 | 1.929
303.15 K, x1 = 1 | 925.8 | 1432 | 1.711
308.15 K, x1 = 0.1141 | 827.63 | 1345.2 | 6.651
308.15 K, x1 = 0.2218 | 835.9 | 1347.8 | 5.497
308.15 K, x1 = 0.3717 | 848.55 | 1353.7 | 4.217
308.15 K, x1 = 0.4886 | 859.44 | 1359.9 | 3.43
308.15 K, x1 = 0.5815 | 868.83 | 1366 | 2.914
308.15 K, x1 = 0.6645 | 877.84 | 1372.5 | 2.523
308.15 K, x1 = 0.7545 | 888.35 | 1380.9 | 2.167
308.15 K, x1 = 0.8324 | 898.14 | 1389.7 | 1.913
308.15 K, x1 = 0.9121 | 908.91 | 1400.6 | 1.705
308.15 K, x1 = 1 | 921.8 | 1416 | 1.537
313.15 K, x1 = 0.1141 | 824 | 1329.2 | 5.619
313.15 K, x1 = 0.2218 | 832.24 | 1331.8 | 4.671
313.15 K, x1 = 0.3717 | 844.85 | 1337.5 | 3.616
313.15 K, x1 = 0.4886 | 855.71 | 1343.5 | 2.963
313.15 K, x1 = 0.5815 | 865.07 | 1349.5 | 2.529
313.15 K, x1 = 0.6645 | 874.05 | 1355.7 | 2.199
313.15 K, x1 = 0.7545 | 884.52 | 1363.8 | 1.898
313.15 K, x1 = 0.8324 | 894.28 | 1372.3 | 1.687
313.15 K, x1 = 0.9121 | 905.03 | 1382.9 | 1.52
313.15 K, x1 = 1 | 917.9 | 1398 | 1.4
318.15 K, x1 = 0.1141 | 819.43 | 1320.2 | 4.835
318.15 K, x1 = 0.2218 | 827.69 | 1321.6 | 4.032
318.15 K, x1 = 0.3717 | 840.35 | 1326.2 | 3.137
318.15 K, x1 = 0.4886 | 851.26 | 1331 | 2.582
318.15 K, x1 = 0.5815 | 860.67 | 1336 | 2.21
318.15 K, x1 = 0.6645 | 869.69 | 1341.2 | 1.928
318.15 K, x1 = 0.7545 | 880.21 | 1348 | 1.672
318.15 K, x1 = 0.8324 | 890.03 | 1355.4 | 1.493
318.15 K, x1 = 0.9121 | 900.83 | 1364.7 | 1.359
318.15 K, x1 = 1 | 913.8 | 1378 | 1.276

CCN(CC)c1ccccc1 [N,N-diethylaniline] + CCCCCCCCCO
Settings | mass density [kg/m3] | speed of sound [m/s] | viscosity [mPa·s]
303.15 K, x1 = 0.1136 | 829.82 | 1359 | 6.563
303.15 K, x1 = 0.2326 | 840.12 | 1362.8 | 5.409
303.15 K, x1 = 0.3469 | 850.43 | 1367.6 | 4.509
303.15 K, x1 = 0.4541 | 860.76 | 1373.5 | 3.804
303.15 K, x1 = 0.5549 | 871.13 | 1380.2 | 3.248
303.15 K, x1 = 0.6498 | 881.45 | 1387.8 | 2.805
303.15 K, x1 = 0.7293 | 890.62 | 1395.3 | 2.488
303.15 K, x1 = 0.8244 | 902.24 | 1405.9 | 2.166
303.15 K, x1 = 0.9041 | 912.58 | 1416.7 | 1.938
303.15 K, x1 = 1 | 925.8 | 1432 | 1.711
308.15 K, x1 = 0.1136 | 826.24 | 1336.3 | 5.491
308.15 K, x1 = 0.2326 | 836.48 | 1340.6 | 4.557
308.15 K, x1 = 0.3469 | 846.76 | 1346.2 | 3.828
308.15 K, x1 = 0.4541 | 857.04 | 1352.7 | 3.252
308.15 K, x1 = 0.5549 | 867.33 | 1360.1 | 2.794
308.15 K, x1 = 0.6498 | 877.63 | 1368.3 | 2.427
308.15 K, x1 = 0.7293 | 886.75 | 1376.3 | 2.164
308.15 K, x1 = 0.8244 | 898.32 | 1387.7 | 1.898
308.15 K, x1 = 0.9041 | 908.61 | 1399.2 | 1.714
308.15 K, x1 = 1 | 921.8 | 1416 | 1.537
313.15 K, x1 = 0.1136 | 822.7 | 1315.3 | 4.791
313.15 K, x1 = 0.2326 | 832.9 | 1320 | 3.988
313.15 K, x1 = 0.3469 | 843.13 | 1325.9 | 3.362
313.15 K, x1 = 0.4541 | 853.37 | 1332.7 | 2.867
313.15 K, x1 = 0.5549 | 863.63 | 1340.4 | 2.471
313.15 K, x1 = 0.6498 | 873.88 | 1348.9 | 2.154
313.15 K, x1 = 0.7293 | 882.96 | 1357.1 | 1.926
313.15 K, x1 = 0.8244 | 894.48 | 1368.8 | 1.697
313.15 K, x1 = 0.9041 | 904.74 | 1380.6 | 1.541
313.15 K, x1 = 1 | 917.9 | 1398 | 1.4
318.15 K, x1 = 0.1136 | 817.68 | 1295.7 | 3.979
318.15 K, x1 = 0.2326 | 827.96 | 1300.3 | 3.341
318.15 K, x1 = 0.3469 | 838.28 | 1306.2 | 2.843
318.15 K, x1 = 0.4541 | 848.61 | 1312.9 | 2.447
318.15 K, x1 = 0.5549 | 858.95 | 1320.6 | 2.128
318.15 K, x1 = 0.6498 | 869.3 | 1328.9 | 1.869
318.15 K, x1 = 0.7293 | 878.48 | 1337.1 | 1.683
318.15 K, x1 = 0.8244 | 890.11 | 1348.6 | 1.498
318.15 K, x1 = 0.9041 | 900.48 | 1360.3 | 1.377
318.15 K, x1 = 1 | 913.8 | 1378 | 1.276

CCN(CC)c1ccccc1 [N,N-diethylaniline] + CCCCCCCCO
Settings | mass density [kg/m3] | speed of sound [m/s] | viscosity [mPa·s]
303.15 K, x1 = 0.1157 | 828.58 | 1338.2 | 5.469
303.15 K, x1 = 0.2012 | 836.5 | 1342.6 | 4.863
303.15 K, x1 = 0.3115 | 847.11 | 1349.2 | 4.178
303.15 K, x1 = 0.4221 | 858.24 | 1357.3 | 3.59
303.15 K, x1 = 0.5111 | 867.57 | 1364.9 | 3.18
303.15 K, x1 = 0.6217 | 879.68 | 1375.9 | 2.743
303.15 K, x1 = 0.7135 | 890.17 | 1386.8 | 2.433
303.15 K, x1 = 0.8063 | 901.22 | 1399.4 | 2.162
303.15 K, x1 = 0.9045 | 913.42 | 1414.7 | 1.915
303.15 K, x1 = 1 | 925.8 | 1432 | 1.711
308.15 K, x1 = 0.1157 | 824.98 | 1317.3 | 4.653
308.15 K, x1 = 0.2012 | 832.86 | 1321.9 | 4.155
308.15 K, x1 = 0.3115 | 843.43 | 1329.1 | 3.59
308.15 K, x1 = 0.4221 | 854.51 | 1337.7 | 3.132
308.15 K, x1 = 0.5111 | 863.81 | 1345.7 | 2.762
308.15 K, x1 = 0.6217 | 875.86 | 1357.3 | 2.397
308.15 K, x1 = 0.7135 | 886.3 | 1368.4 | 2.137
308.15 K, x1 = 0.8063 | 897.3 | 1381.4 | 1.913
308.15 K, x1 = 0.9045 | 909.45 | 1397.3 | 1.704
308.15 K, x1 = 1 | 921.8 | 1416 | 1.537
313.15 K, x1 = 0.1157 | 820.38 | 1300 | 3.991
313.15 K, x1 = 0.2012 | 828.3 | 1304.5 | 3.58
313.15 K, x1 = 0.3115 | 838.94 | 1311.6 | 3.112
313.15 K, x1 = 0.4221 | 850.09 | 1320.2 | 2.707
313.15 K, x1 = 0.5111 | 859.45 | 1328.2 | 2.422
313.15 K, x1 = 0.6217 | 871.58 | 1339.5 | 2.118
313.15 K, x1 = 0.7135 | 882.1 | 1350.5 | 1.899
313.15 K, x1 = 0.8063 | 893.18 | 1363.3 | 1.708
313.15 K, x1 = 0.9045 | 905.42 | 1379.3 | 1.536
313.15 K, x1 = 1 | 917.9 | 1398 | 1.4
318.15 K, x1 = 0.1157 | 815.85 | 1286.3 | 3.504
318.15 K, x1 = 0.2012 | 823.79 | 1290.4 | 3.151
318.15 K, x1 = 0.3115 | 834.47 | 1297 | 2.748
318.15 K, x1 = 0.4221 | 845.67 | 1304.9 | 2.398
318.15 K, x1 = 0.5111 | 855.06 | 1312.4 | 2.154
318.15 K, x1 = 0.6217 | 867.24 | 1323 | 1.889
318.15 K, x1 = 0.7135 | 877.8 | 1333.2 | 1.701
318.15 K, x1 = 0.8063 | 888.93 | 1345.1 | 1.535
318.15 K, x1 = 0.9045 | 901.24 | 1360.1 | 1.388
318.15 K, x1 = 1 | 913.8 | 1378 | 1.276
